{"source": "patent US8551997B2", "about": "“Structural-based inhibitors of the glutathione binding site in aldose reductase, methods of screening therefor and methods of use” (The Board of Regents of the University of Texas System, priority 2004, dated 2013)", "key": {"[1]": {"test_system": "rat VSMC cells", "assay": "High glucose-induced TNF-a production in VSMC", "format": "cell-based", "procedure": "Growth-arrested VSMC in 5.5 mM glucose (NG) were preincubated for 1 h without or with apocyanin (25 mM), D609 (100 mM), calphostin C (0.2 mM), N-acetyl cysteine (10 mM) and NF-kB inhibitor (18 mM) (FIG. 4A) and without or with sorbinil or tolrestat (10 mM each) (FIG. 4B) followed by the addition of glucose (19.5 mM) and incubation for the indicated times. AR antisense ablated VSMC were incubated with HG for the indicated times (FIG. 4C).\nGrowth-arrested VSMC in 5.5 mM glucose (NG) were preincubated for 1 h without or with apocyanin (25 mM), D609 (100 mM), calphostin C (0.2 mM), N-acetyl cysteine (10 mM) and NF-kB inhibitor (18 mM) respectively, followed by the addition of 19.5 mM glucose, after which the cells were incubated for 12 and 24 hrs."}, "[2]": {"test_system": "C57BL/6 mice", "assay": "LPS-induced cardiac dysfunction, M-mode echocardiography", "format": "in vivo, mouse"}, "[3]": {"test_system": "isolated mouse hearts", "assay": "Isolated mouse hearts (Langendorff preparation) challenged with LPS", "settings": "perfusion with sorbinil in the presence of LPS"}, "[4]": {"test_system": "Caco-2 cells", "assay": "Cyclooxygenase activity assay in Caco-2 cells", "format": "cell-based, human", "parameters": "dose or concentration left out as unconfirmed", "settings": "24 h", "procedure": "For determination of Cox activity growth-arrested Caco-2 cells were treated with either 10 ng/ml BFGF or PDGF in the absence and presence of sorbinil […] for 24 h. The cells were harvested and homogenized in cold (4° C.) buffer containing 0.1M Tris-Hcl, pH 7.8 and 1 mM EDTA and the activity was measured in 96 well plate according to the manufacturer's (Cayman Chemical Co., Inc.) instructions. Briefly, 10 μl of standard/sample were incubated in the presence of arachidonic acid and substrate, N,N, N,N-tetra methyl-p-phenylenediamine (TMPD) in a total reaction volume of 210 μl. The Cox peroxidase activity was measured colorimetrically by monitoring appearance of oxidized TMPD at 590 nm by using ELISA reader."}, "[5]": {"test_system": "A549 cells", "assay": "Western blot of Cox-2 and iNOS in A549 cells", "format": "cell-based, human", "settings": "concentration dependent", "procedure": "(§1) To examine expression of any of Cox-1, Cox-2, phospho-PKC-2, GAPDH, E2F1, Cyclin D1, Cyclin E, and iNOS proteins, Western blot analyses were carried by known methods (15). Equal amounts of protein from cell extracts were subjected to 12% SDS-PAGE followed by transfer of proteins to nitrocellulose filters, probing with the indicated antibodies, and the antigen-antibody complex was detected by enhanced chemiluminescence (Pierce, Piscataway, N.J., USA)."}, "[6]": {"test_system": "Caco-2 cells", "assay": "NF-kB-dependent reporter SEAP expression assay", "format": "cell-based, human", "procedure": "Caco-2 cells (1.5×10^5 cells/well) were plated in six-well plates and after attachment overnight, were serum-starved in optiMEM medium for 24 h with or without aldose reductase inhibitor, sorbinil (20 μM) and were transiently transfected with pNF-kB-SEAP construct or control plasmid pTALSEAP DNA (Clontech, USA) using the lipofectamine plus reagent. After 6 h of transfection, cells were treated either with 10 ng/ml BFGF or PDGF for 48 h in DMEM medium containing 0.1% FBS. The cell culture medium was then harvested and analyzed for SEAP activity, essentially as described by the manufacturer (Clontech Laboratories, Palo Alto, Calif.), using a 96-well chemiluminescence plate reader and Kodak Image Station 2000R."}, "[7]": {"test_system": "Caco-2 cells", "assay": "Membrane-bound PKC activity in Caco-2 cells", "format": "cell-based, human", "procedure": "PKC activity was measured using the Promega-Sigma TECT PKC assay system as described earlier (15). Briefly, aliquots of the reaction mixture (25 mM Tris-Hcl pH 7.5, 1.6 mg/mL phosphatidylserine, 0.16 mg/mL diacylglycerol, and 50 mM MgCl2) were mixed with […] (3,000 Ci/mmol, 10 μCi/μL) and incubated at 30° C. for 10 min. To stop the reaction, 7.5 M guanidine hydrochloride were added and the phosphorylated peptide was separated on binding paper. The extent of phosphorylation was detected by measuring radioactivity retained on the paper."}, "[8]": {"test_system": "Caco-2 cells", "assay": "Western blot of phospho-PKC-b2 in Caco-2 cells", "format": "cell-based, human", "settings": "BFGF or PDGF", "procedure": "as §1"}, "[9]": {"test_system": "A549 cells", "assay": "Flowcytometric cell cycle analysis, A549", "format": "cell-based, human", "settings": "10% FBS", "procedure": "The Caco-2 and A549 cells were grown separately in 6 well plates at a density of approximately 1.5×10^5 cells/well. Growth-arrested Caco-2 cells were pre-incubated with or without sorbinil 20 μM or carrier for 24 h and then stimulated with either 10 ng/ml BFGF or PDGF for another 24 h. After 24 hrs A549 cells were incubated with or without sorbinil at different concentrations for another 24 h.\nThe Caco-2 and A549 cells were then washed with PBS and harvested by trypsinization. Cellular DNA was stained with low and high salt solutions. Briefly, cells were resuspended in 250 μl of solution A, low salt stain, containing polyetheleneglycol (30 mg/ml), propidium iodide (0.05 mg/ml), triton-x-100 (1 μl/ml), sodium citrate 4 mM, RNAse A 10 μg/ml and incubated at 37° C. for 20 min followed by the addition of 250 μl of solution B, high salt stain containing 400 mM NaCl instead of 4 mM sodium citrate in solution A, and incubated overnight at 4° C. Cell cycle analysis was performed with a minimum of 10,000 events per analysis by using FACScan flow cytometer (Becton, Dickinson and Co., San Jose, Calif., USA)."}, "[10]": {"test_system": "A549 cells", "assay": "Western blot of cell cycle regulatory proteins in A549 cells", "format": "cell-based, human", "settings": "various concentrations", "procedure": "as §1"}}}
{"substance": "(S)-6-fluorospiro[chroman-4,4′-imidazolidine]-2,5′-dione [sorbinil]", "values": [{"measurement": "basal levels of TNF-a", "setting": "[1]; media containing 5.5 mM glucose, mannitol, or 3-OMG", "result": "did not affect"}, {"measurement": "high glucose-induced TNF-a secretion", "setting": "[1]; preincubated 1 h, then 19.5 mM glucose, apocyanin 25 mM, calphostin C 0.2 mM, N-acetyl cysteine 10 mM, sorbinil or tolrestat 10 mM each, or AR antisense ablated", "result": "prevents"}, {"measurement": "percent fractional shortening (FS %)", "setting": "[2]; at 8 h after LPS, pretreated with sorbinil", "result": "recovered significantly"}, {"measurement": "general activity level of LPS-exposed mice", "setting": "[2]; within 24 h", "result": "normal grooming and other activities"}, {"measurement": "time to maximal ±dP/dt, coronary perfusion pressure, coronary vascular resistance, heart rate", "setting": "[3]", "result": "unaffected"}, {"measurement": "left ventricular pressure (LVP), +dP/dtmax and −dP/dtmax", "setting": "[3]; compared to vehicle", "result": "significantly increased"}, {"measurement": "BFGF and PDGF-induced Cox activity", "setting": "[4]", "result": "abolished"}, {"measurement": "Cox-2 and iNOS expression", "setting": "[5]", "result": "inhibit"}, {"measurement": "inhibition of BFGF and PDGF-induced NF-κB-dependent reporter (SEAP) activation", "setting": "[6]; sorbinil 20 μM", "result": "> 60", "unit": "%"}, {"measurement": "NF-κB-SEAP activity", "setting": "[6]; sorbinil alone", "result": "did not affect"}, {"measurement": "growth factor-induced increase in membrane-bound PKC activity", "setting": "[7]", "result": "significantly prevented"}, {"measurement": "total PKC activity", "setting": "[7]; sorbinil by itself", "result": "did not alter"}, {"measurement": "attenuation of increase in PKC-β2 phosphorylation", "setting": "[8]", "result": "> 70", "unit": "%"}, {"measurement": "percentage of cells in G1", "setting": "[9]; 25 μM", "result": 58.79, "unit": "%"}, {"measurement": "percentage of cells in G2", "setting": "[9]; 25 μM", "result": 6.06, "unit": "%"}, {"measurement": "percentage of cells in S", "setting": "[9]; 25 μM", "result": 35.14, "unit": "%"}, {"measurement": "percentage of cells in G1", "setting": "[9]; 50 μM", "result": 59.24, "unit": "%"}, {"measurement": "percentage of cells in G2", "setting": "[9]; 50 μM", "result": 5.47, "unit": "%"}, {"measurement": "percentage of cells in S", "setting": "[9]; 50 μM", "result": 35.29, "unit": "%"}, {"measurement": "percentage of cells in G1", "setting": "[9]; 75 μM", "result": 64.21, "unit": "%"}, {"measurement": "percentage of cells in G2", "setting": "[9]; 75 μM", "result": 5.55, "unit": "%"}, {"measurement": "percentage of cells in S", "setting": "[9]; 75 μM", "result": 30.24, "unit": "%"}, {"measurement": "percentage of cells in G1", "setting": "[9]; 100 μM", "result": 65.55, "unit": "%"}, {"measurement": "percentage of cells in G2", "setting": "[9]; 100 μM", "result": 4.8, "unit": "%"}, {"measurement": "percentage of cells in S", "setting": "[9]; 100 μM", "result": 29.75, "unit": "%"}, {"measurement": "E2F-1, Cyclin E and Cyclin D1 expression", "setting": "[10]", "result": "significant inhibition"}]}
